According to patent publication US10689354B2, “Aminoazole derivative” (Teijin Pharma Limited, priority 2015, dated 2020):

These molecules were tested against T1, androgen receptor (AR-LBD) (Rattus norvegicus, UniProt P15207) (assay: Evaluation of androgen receptor affinity (PolarScreen Androgen Receptor Competitor Assay Kit, Red; fluorescence polarization)). Conditions: 22° C. for 5 hours, relative to binding rate of 1 μM DHT, read-out: AR affinity (pEC50) (converted).
T1 construct: 5 μL of 2×AR-LBD/Fluoromone AL Red Complex contained in the kit; purchased Invitrogen
T1 sequence (P15207 651-882 limits assumed): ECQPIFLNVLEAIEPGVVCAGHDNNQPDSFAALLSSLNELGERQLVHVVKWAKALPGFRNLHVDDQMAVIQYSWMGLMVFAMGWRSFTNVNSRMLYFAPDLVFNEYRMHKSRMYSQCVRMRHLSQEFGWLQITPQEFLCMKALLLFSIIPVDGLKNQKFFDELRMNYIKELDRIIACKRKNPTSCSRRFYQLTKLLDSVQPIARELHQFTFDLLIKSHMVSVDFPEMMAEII
Method in brief: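 Compounds were mixed with AR-LBD/Fluoromone AL Red complex and incubated 5 h at 22° C before fluorescence polarization was read. Binding was expressed relative to 1 μM dihydrotestosterone, and pEC50 (concentration giving 50% of that binding) came from a 4-parameter fit.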
Cc1sc(N(CCC2CCOCC2)Cc2ccccc2)nc1C(=O)NS(C)(=O)=O [Example 300, 2-[benzyl(2-tetrahydropyran-4-ylethyl)amino]-5-methyl-N-methylsulfonyl-thiazole-4-carboxamide] showed an EC50 of 398 nM. Cc1sc(N(CC(C)(C)C)c2ccc(C#N)cc2)nc1C(=O)NS(C)(=O)=O [Compound 74, 2-[4-cyano-N-(2,2-dimethylpropyl)anilino]-5-methyl-N-methylsulfonyl-thiazole-4-carboxamide] showed an EC50 greater than 2000 nM. Cc1sc(N(CC(=O)C(C)(C)C)c2ccc(C#N)cc2)nc1C(=O)NS(C)(=O)=O [Compound 63, 2-(4-cyano-N-(3,3-dimethyl-2-oxo-butyl)anilino)-5-methyl-N-methylsulfonyl-thiazole-4-carboxamide] was tested, and the EC50 was greater than 2000 nM. For Cc1sc(N(CCc2c(Cl)cccc2Cl)Cc2ccccc2)nc1C(=O)NS(C)(=O)=O [Example 316, 2-[benzyl-[2-(2,6-dichlorophenyl)ethyl]amino]-5-methyl-N-methylsulfonyl-thiazole-4-carboxamide], the EC50 was greater than 2000 nM. In the case of Cc1sc(N(Cc2ccccc2OC(F)(F)F)c2ccc(C#N)cc2)nc1C(=O)NS(C)(=O)=O [Compound 101, 2-[4-cyano-N-[[2-(trifluoromethoxy)phenyl]methyl]anilino]-5-methyl-N-methylsulfonyl-thiazole-4-carboxamide], the EC50 is reported as 631 nM. Molecule Cc1sc(N(Cc2nc3ccccc3[nH]2)c2ccc(C#N)cc2)nc1C(=O)NS(C)(=O)=O [Compound 460, 2-[N-(1H-benzimidazol-2-ylmethyl)-4-cyano-anilino]-5-methyl-N-methylsulfonyl-thiazole-4-carboxamide] has an EC50 of 1260 nM. Work on Cc1sc(N(Cc2ccccc2)c2ccccc2CO)nc1C(=O)NS(C)(=O)=O [Compound 606, 2-[N-benzyl-2-(hydroxymethyl)anilino]-5-methyl-N-methylsulfonyl-thiazole-4-carboxamide] yielded an EC50 greater than 2000 nM. In the case of Cc1noc(C)c1CCN(Cc1ccccc1)c1nc(C(=O)NS(C)(=O)=O)c(C)s1 [Compound 691, 2-[benzyl-[2-(3,5-dimethylisoxazol-4-yl)ethyl]amino]-5-methyl-N-methylsulfonyl-thiazole-4-carboxamide], the EC50 is reported as greater than 2000 nM. Cc1sc(N(Cc2ccccc2)c2ccccc2C(F)(F)F)nc1C(=O)NS(C)(=O)=O [Example 228, 2-[N-benzyl-2-(trifluoromethyl)anilino]-5-methyl-N-methylsulfonyl-thiazole-4-carboxamide] showed an EC50 greater than 2000 nM. Cc1sc(N(Cc2ccccc2)c2ccc(C(F)(F)F)nn2)nc1C(=O)NS(C)(=O)=O [Example 237, 2-[benzyl-[6-(trifluoromethyl)pyridazin-3-yl]amino]-5-methyl-N-methylsulfonyl-thiazole-4-carboxamide] showed an EC50 of 631 nM. Cc1sc(N(Cc2ccc(CO)cc2)c2ccc(C#N)cc2)nc1C(=O)NS(C)(=O)=O [Compound 356, 2-[4-cyano-N-[[4-(hydroxymethyl)phenyl]methyl]anilino]-5-methyl-N-methylsulfonyl-thiazole-4-carboxamide] showed an EC50 of 631 nM. For Cc1sc(N(Cc2ccccc2)c2ccc(C#N)cc2)nc1C(=O)NS(=O)(=O)c1ccccc1 [Compound 375, N-(benzenesulfonyl)-2-(N-benzyl-4-cyano-anilino)-5-methyl-thiazole-4-carboxamide], the EC50 was greater than 2000 nM. Cc1sc(N(Cc2ccccc2)c2ccc(C#N)cc2)nc1C(=O)NS(=O)(=O)c1cn(C)cn1 [Compound 394, 2-(N-benzyl-4-cyano-anilino)-5-methyl-N-(1-methylimidazol-4-yl)sulfonyl-thiazole-4-carboxamide] gave an EC50 greater than 2000 nM. Work on Cc1sc(N(CCc2ccc3ccccc3c2)Cc2ccccc2)nc1C(=O)NS(C)(=O)=O [Example 312, 2-[benzyl-[2-(2-naphthyl)ethyl]amino]-5-methyl-N-methylsulfonyl-thiazole-4-carboxamide] yielded an EC50 of 631 nM. COC(C)(C)CCN(c1ccc(C#N)cc1)c1nc(C(=O)NS(C)(=O)=O)c(C)s1 [Compound 444, 2-(4-cyano-N-(3-methoxy-3-methyl-butyl)anilino)-5-methyl-N-methylsulfonyl-thiazole-4-carboxamide] gave an EC50 of 1260 nM. In the case of Cc1sc(N(CC2CCC2)c2ccc(C#N)cc2)nc1C(=O)NS(C)(=O)=O [Compound 440, 2-[4-cyano-N-(cyclobutylmethyl)anilino]-5-methyl-N-methylsulfonyl-thiazole-4-carboxamide], the EC50 is reported as 501 nM. In the case of Cc1sc(N(Cc2ccccc2)c2ccc(CCO)cc2)nc1C(=O)NS(C)(=O)=O [Example 234, 2-[N-benzyl-4-(2-hydroxyethyl)anilino]-5-methyl-N-methylsulfonyl-thiazole-4-carboxamide], the EC50 is reported as greater than 2000 nM. Work on COc1cccc(N(Cc2ccccc2)c2nc(C(=O)NS(C)(=O)=O)c(C)s2)c1 [Example 204, 2-(N-benzyl-3-methoxy-anilino)-5-methyl-N-methylsulfonyl-thiazole-4-carboxamide] yielded an EC50 greater than 2000 nM. For Cc1sc(N(CCCc2ccccc2)Cc2ccccc2)nc1C(=O)NS(C)(=O)=O [Example 297, 2-[benzyl(3-phenylpropyl)amino]-5-methyl-N-methylsulfonyl-thiazole-4-carboxamide], the EC50 was 501 nM. With Cc1sc(N(CCc2ccccn2)Cc2ccccc2)nc1C(=O)NS(C)(=O)=O [Compound 334, 2-[benzyl-[2-(2-pyridyl)ethyl]amino]-5-methyl-N-methylsulfonyl-thiazole-4-carboxamide] the EC50 was greater than 2000 nM. With Cc1sc(N(CC2CCCCO2)c2ccc(C#N)cc2)nc1C(=O)NS(C)(=O)=O (stereo not drawn) [Compound 345, 2-[4-cyano-N-(tetrahydropyran-2-ylmethyl)anilino]-5-methyl-N-methylsulfonyl-thiazole-4-carboxamide] the EC50 was greater than 2000 nM. With Cc1sc(N(Cc2ccccc2)c2ccc3[nH]ccc3c2)nc1C(=O)NS(C)(=O)=O [Compound 336, 2-[benzyl(1H-indol-5-yl)amino]-5-methyl-N-methylsulfonyl-thiazole-4-carboxamide] the EC50 was greater than 2000 nM. Work on Cc1sc(N(Cc2ccccc2)c2ccc3c(ccn3C)c2)nc1C(=O)NS(C)(=O)=O [Compound 338, 2-[benzyl-(1-methylindole-5-yl]amino]-5-methyl-N-methylsulfonyl-thiazole-4-carboxamide] yielded an EC50 greater than 2000 nM. In the case of Cc1sc(N(CCc2ccc(S(C)(=O)=O)cc2)Cc2ccccc2)nc1C(=O)NS(C)(=O)=O [Example 317, 2-[benzyl-[2-(4-methylsulfonylphenyl)ethyl]amino]-5-methyl-N-methylsulfonyl-thiazole-4-carboxamide], the EC50 is reported as 501 nM. Work on COc1ccc(CN(c2ccc(C#N)cc2)c2nc(C(=O)NS(C)(=O)=O)c(Br)s2)cc1 [Example 250, 5-bromo-2-[4-cyano-N-[(4-methoxyphenyl)methyl]anilino]-N-methylsulfonyl-thiazole-4-carboxamide] yielded an EC50 of 63.1 nM. Cc1sc(N(CC(=O)C2CCCCC2)c2ccc(C#N)cc2)nc1C(=O)NS(C)(=O)=O [Compound 432, 2-(4-cyano-N-(2-cyclohexyl-2-oxo-ethyl)anilino)-5-methyl-N-methylsulfonyl-thiazole-4-carboxamide] showed an EC50 greater than 2000 nM. In the case of Cc1sc(N(Cc2ccccc2)CC2(c3ccccc3)CC2)nc1C(=O)NS(C)(=O)=O [Example 304, 2-[benzyl-[(1-phenylcyclopropyl)methyl]amino]-5-methyl-N-methylsulfonyl-thiazole-4-carboxamide], the EC50 is reported as greater than 2000 nM.
